Source: patent US8586020B2, “Poly(organophosphazene) composition for biomaterials” (Korea Institute of Science and Technology, priority 2011, dated 2013)

Experiments:
[1] = pH 7.4

Substance | cell viability (MTT) (NIH3T3 cells) | Max. Gelling Temp. [1] [°C]
Poly[(isoleucineethylester)(aminomethoxy polyethyleneglycol550)(cysteamine)phosphazene] [Example 22] | such a high viability as the cell alone | 42
Poly[(isoleucineethylester)(aminomethoxy polyethyleneglycol550)(tyramine)phosphazene] [Example 24] | – | 34
Poly[(isoleucineethylester)(aminomethoxy polyethyleneglycol550)(cysteamine)phosphazene] [Example 21] | such a high viability as the cell alone | 38
